Experimental data reported in patent US4537717A.
Values after ≈ are worked out from the molar mass of the structure shown.

What was measured:
[1] = test system: Staphylococcus aureus ATCC 6738P; assay: agar-plate disc-diffusion test; type: cell-based; conditions: suspended in water at 1 mg/ml; 7 mm disc; 24-48 hours at 25-37° C.
[2] = test system: Micrococcus luteus ATCC 9341; assay: agar-plate disc-diffusion test; type: cell-based; conditions: suspended in water at 1 mg/ml; 7 mm disc; 24-48 hours at 25-37° C.
[3] = test system: Staphylococcus aureus X1.1; type: cell-based; conditions: agar dilution; 2, 5, 17, 22 median of three tests; paired values two experiments
[4] = test system: Staphylococcus aureus V41; type: cell-based; conditions: penicillin-resistant strain; agar dilution; 2, 5, 17, 22 median of three tests; paired values two experiments
[5] = test system: Staphylococcus aureus X400; type: cell-based; conditions: methicillin-resistant strain; agar dilution; 2, 5, 17, 22 median of three tests; paired values two experiments
[6] = test system: Staphylococcus epidermidis EPI1; type: cell-based; conditions: agar dilution; 2, 5, 17, 22 median of three tests; paired values two experiments
[7] = test system: Staphylococcus epidermidis EPI2; type: cell-based; conditions: agar dilution; 2, 5, 17, 22 median of three tests; paired values two experiments
[8] = test system: Streptococcus pyogenes C203; type: cell-based; conditions: agar dilution; 2, 5, 17, 22 median of three tests; paired values two experiments
[9] = test system: Streptococcus pneumoniae Park I; type: cell-based; conditions: agar dilution; 2, 5, 17, 22 median of three tests; paired values two experiments
[10] = test system: Streptococcus pneumoniae Group D X66; type: cell-based; conditions: agar dilution; 2, 5, 17, 22 median of three tests; paired values two experiments
[11] = test system: Streptococcus Group 9960; type: cell-based, Streptococcus pneumoniae; conditions: agar dilution; 2, 5, 17, 22 median of three tests; paired values two experiments
[12] = test system: Staphylococcus aureus; assay: in vivo activity against experimental bacterial infection (ED50); conditions: mice; two doses subcutaneously; dose protecting fifty percent of test animals
[13] = test system: Streptococcus pyogenes; assay: as above; conditions: mice, dose protecting fifty percent of test animals; for ED50 Streptococcus pyogenes Oral: two doses orally; for ED50 Streptococcus pyogenes Subcutaneous: two doses subcutaneously
[14] = toxicity test (LD50); conditions: mouse, in vivo, iv, mice; administered intravenously
[15] = test system: Bacillus subtilis ATCC 6633; assay: agar-plate disc-diffusion test; conditions: 7 mm disc, 24-48 hours at 25-37° C.; for Size of Zone of Inhibition (mm) B. subtilis ATCC 6633, grown on minimal nutrient agar: 1 mg/ml; for Size of Zone of Inhibition (mm) Bacillus subtilis ATCC 6633: suspended in water at 1 mg/ml
Protocol: ^a Compounds were suspended in water at a concentration of 1 mg/ml; a
7 mm disc was dipped into the suspension and then placed on the agar
surface; incubation: 24-48 hours at 25-37° C.
^b Grown on minimal nutrient agar

| SMILES | Size of Zone of Inhibition (mm) Staphylococcus aureus ATCC 6738P [1] | Size of Zone of Inhibition (mm) Micrococcus luteus ATCC 9341 [2] | MIC Staphylococcus aureus X1.1 [3] | MIC Staphylococcus aureus V41 [4] | MIC Staphylococcus aureus X400 [5] | MIC Staphylococcus epidermidis EPI1 [6] | MIC Staphylococcus epidermidis EPI2 [7] | MIC Streptococcus pyogenes C203 [8] | MIC Streptococcus pneumoniae Park I [9] | MIC Streptococcus pneumoniae Group D X66 [10] | MIC Streptococcus pneumoniae Group 9960 [11] | ED50 Staphylococcus aureus Subcutaneous [12] | ED50 Streptococcus pyogenes Oral [13] | ED50 Streptococcus pyogenes Subcutaneous [13] | LD50 [14] | Size of Zone of Inhibition (mm) B. subtilis ATCC 6633, grown on minimal nutrient agar [15] | Size of Zone of Inhibition (mm) Bacillus subtilis ATCC 6633 [15] |
| --- | --- | --- | --- | --- | --- | --- | --- | --- | --- | --- | --- | --- | --- | --- | --- | --- | --- |
| CCCCCCCCCCCCCCCC(=O)N[C@@H](Cc1c[nH]c2ccccc12)C(=O)N[C@@H](CC(N)=O)C(=O)N[C@@H](CC(=O)O)C(=O)N[C@@H]1C(=O)NCC(=O)N[C@@H](CCCN)C(=O)N[C@@H](CC(=O)O)C(=O)N[C@H](C)C(=O)N[C@@H](CC(=O)O)C(=O)NCC(=O)N[C@H](CO)C(=O)N[C@@H]([C@H](C)CC(=O)O)C(=O)N[C@@H](CC(=O)c2ccccc2N)C(=O)O[C@@H]1C [Compound 10] | 19 mm | 17 mm | 1 µg/mL (≈ 0.587 µM) | 1 µg/mL (≈ 0.587 µM) | 2 µg/mL (≈ 1.17 µM) | 2 µg/mL (≈ 1.17 µM) | 2 µg/mL (≈ 1.17 µM) | 1 µg/mL (≈ 0.587 µM) | 0.06 µg/mL (≈ 0.0352 µM) | 2 µg/mL (≈ 1.17 µM) | 0.25 µg/mL (≈ 0.147 µM) | > 1.1 mg/kg × 2 | > 200 mg/kg × 2 | 0.18 mg/kg × 2 | 50 mg/kg | 23 mm | 17 mm |
| CCCCCCCCCCC(=O)N[C@@H](Cc1c[nH]c2ccccc12)C(=O)N[C@@H](CC(N)=O)C(=O)N[C@@H](CC(=O)O)C(=O)N[C@@H]1C(=O)NCC(=O)N[C@@H](CCCN)C(=O)N[C@@H](CC(=O)O)C(=O)N[C@H](C)C(=O)N[C@@H](CC(=O)O)C(=O)NCC(=O)N[C@H](CO)C(=O)N[C@@H]([C@H](C)CC(=O)O)C(=O)N[C@@H](CC(=O)c2ccccc2N)C(=O)O[C@@H]1C [Compound 5] | 19 mm | 21 mm | 0.25 µg/mL (≈ 0.153 µM) | 0.25 µg/mL (≈ 0.153 µM) | 0.5 µg/mL (≈ 0.306 µM) | 0.5 µg/mL (≈ 0.306 µM) | 0.5 µg/mL (≈ 0.306 µM) | 0.125 µg/mL (≈ 0.0765 µM) | 0.25 µg/mL (≈ 0.153 µM) | 2 µg/mL (≈ 1.22 µM) | 0.5 µg/mL (≈ 0.306 µM) | 0.37 mg/kg × 2 | 138 mg/kg × 2 | 0.13 mg/kg × 2 | > 600 mg/kg | 21 mm | 19 mm |
| C=CCCCCCCCCC(=O)N[C@@H](Cc1c[nH]c2ccccc12)C(=O)N[C@@H](CC(N)=O)C(=O)N[C@@H](CC(=O)O)C(=O)N[C@@H]1C(=O)NCC(=O)N[C@@H](CCCN)C(=O)N[C@@H](CC(=O)O)C(=O)N[C@H](C)C(=O)N[C@@H](CC(=O)O)C(=O)NCC(=O)N[C@H](CO)C(=O)N[C@@H]([C@H](C)CC(=O)O)C(=O)N[C@@H](CC(=O)c2ccccc2N)C(=O)O[C@@H]1C [Compound 11] | 21 mm | 20 mm | 0.5 µg/mL (≈ 0.306 µM) | 0.5 µg/mL (≈ 0.306 µM) | 0.5 µg/mL (≈ 0.306 µM) | 1 µg/mL (≈ 0.612 µM) | 1 µg/mL (≈ 0.612 µM) | 0.5 µg/mL (≈ 0.306 µM) | 0.25 µg/mL (≈ 0.153 µM) | 1 µg/mL (≈ 0.612 µM) | 0.5 µg/mL (≈ 0.306 µM) | 0.93 mg/kg × 2 | 138 mg/kg × 2 | 0.068 mg/kg × 2 | ≥ 500 mg/kg | 25 mm | 17 mm |
| CCCCCCCCCCCCCCC(=O)N[C@@H](Cc1c[nH]c2ccccc12)C(=O)N[C@@H](CC(N)=O)C(=O)N[C@@H](CC(=O)O)C(=O)N[C@@H]1C(=O)NCC(=O)N[C@@H](CCCN)C(=O)N[C@@H](CC(=O)O)C(=O)N[C@H](C)C(=O)N[C@@H](CC(=O)O)C(=O)NCC(=O)N[C@H](CO)C(=O)N[C@@H]([C@H](C)CC(=O)O)C(=O)N[C@@H](CC(=O)c2ccccc2N)C(=O)O[C@@H]1C [Compound 9] | 20 mm | 19 mm | 1 µg/mL (≈ 0.591 µM) | 1 µg/mL (≈ 0.591 µM) | 2 µg/mL (≈ 1.18 µM) | 2 µg/mL (≈ 1.18 µM) | 4 µg/mL (≈ 2.37 µM) | 1 µg/mL (≈ 0.591 µM) | 0.06 µg/mL (≈ 0.0355 µM) | 2 µg/mL (≈ 1.18 µM) | 0.25 µg/mL (≈ 0.148 µM) | 8.3 mg/kg × 2 | > 200 mg/kg × 2 | – | 56.2 mg/kg | 24 mm | 19 mm |
| CCCCCCC(=O)N[C@@H](Cc1c[nH]c2ccccc12)C(=O)N[C@@H](CC(N)=O)C(=O)N[C@@H](CC(=O)O)C(=O)N[C@@H]1C(=O)NCC(=O)N[C@@H](CCCN)C(=O)N[C@@H](CC(=O)O)C(=O)N[C@H](C)C(=O)N[C@@H](CC(=O)O)C(=O)NCC(=O)N[C@H](CO)C(=O)N[C@@H]([C@H](C)CC(=O)O)C(=O)N[C@@H](CC(=O)c2ccccc2N)C(=O)O[C@@H]1C [Compound 1] | 17 mm | 21 mm | 8 µg/mL (≈ 5.07 µM) | 8 µg/mL (≈ 5.07 µM) | 8 µg/mL (≈ 5.07 µM) | 16 µg/mL (≈ 10.1 µM) | 8 µg/mL (≈ 5.07 µM) | 2 µg/mL (≈ 1.27 µM) | 8 µg/mL (≈ 5.07 µM) | 128 µg/mL (≈ 81.1 µM) | 128 µg/mL (≈ 81.1 µM) | 2.65 mg/kg × 2 | – | – | > 600 mg/kg | 16 mm | 15 mm |
| CCCCCCCCC(=O)N[C@@H](Cc1c[nH]c2ccccc12)C(=O)N[C@@H](CC(N)=O)C(=O)N[C@@H](CC(=O)O)C(=O)N[C@@H]1C(=O)NCC(=O)N[C@@H](CCCN)C(=O)N[C@@H](CC(=O)O)C(=O)N[C@H](C)C(=O)N[C@@H](CC(=O)O)C(=O)NCC(=O)N[C@H](CO)C(=O)N[C@@H]([C@H](C)CC(=O)O)C(=O)N[C@@H](CC(=O)c2ccccc2N)C(=O)O[C@@H]1C [Compound 3] | 20 mm | 18 mm | 2 µg/mL (≈ 1.24 µM) | 2 µg/mL (≈ 1.24 µM) | 4 µg/mL (≈ 2.49 µM) | 4 µg/mL (≈ 2.49 µM) | 2 µg/mL (≈ 1.24 µM) | 0.25 µg/mL (≈ 0.156 µM) | 2 µg/mL (≈ 1.24 µM) | 32 µg/mL (≈ 19.9 µM) | 8 µg/mL (≈ 4.98 µM) | 0.5 mg/kg × 2 | – | – | > 600 mg/kg | 27 mm | 16 mm |
